From publication PMC8637440, “Structural Modifications Yield Novel Insights Into the Intriguing Pharmacodynamic Potential of Anti-inflammatory Nitro-Fatty Acids” (Frontiers in Pharmacology, 2021)

What was measured:
COX-2 expression = COX-2 expression in A549 cells (Western blot); format: cell-based, human; details: 24 h; for COX-2 expression in IL-1β-stimulated A549 cells: 10 µM
Procedure: Cytoplasmic and nuclear extracts (100 µg each) and 30 µg whole-cell lysates were diluted in 5× Laemmli loading dye and denatured for 10 min at 95°C, loaded on a 10% SDS polyacrylamide gel, and separated by gel electrophoresis for 15 min at 80 V followed by 60 min at 120 V. The separated proteins were blotted onto a nitrocellulose membrane (Hybond-C Extra, Amersham Biosciences Ltd., UK) using the Mini Trans-Blot® module (Bio-Rad, Hercules, California, United States) for 90 min at 90 V. The membrane was blocked with Odyssey blocking buffer (Li-Cor Biosciences, Bad Homburg, Germany) or 5% milk powder in TBS-T (Tris Buffered Saline with 0.1% Tween) for 1 h at room temperature (RT). The membranes were incubated with the primary antibodies overnight at 4°C, and then with the secondary antibodies for 1 h at RT. The primary antibodies were diluted 1:1,000 and the secondary antibodies were diluted 1:10,000 to 1:20,000. […] Upon detection, the membrane was washed three times with 1× PBS-T (Phosphate-Buffered Saline with 0.1% Tween) or TBS-T and finally once with 1× PBS or TBS before the protein–antibody interaction was visualized on an Odyssey Infrared Imaging System (Li-Cor Biosciences) at 700 nm or 800 nm depending on the fluorophore of the secondary antibody.
Suppl. Figure 6: Effects of NFA on cellular COX-2 expression. Representative Western Blot of A549 cells treated with (A) NFA with different carbon chain length and (B) different Michael acceptor position for 24 h without IL-1 β stimulation (1 ng/ml) and the densitometrical evaluation of n=4-5 experiments (C, D). Representative Western Blot of A549 cells stimulated with IL-1 β and subsequent treatment with (E) NFA with different carbon chain length and (F) different Michael acceptor position for 24 h and the densitometrical evaluation of n=4-5 experiments (G, H). Intracellular COX-2 levels were normalized to β-actin and presented as mean + SD. Statistical significance was calculated by one-way ANOVA with Bonferroni post-test. P-values of **** P ≦0.0001, **P ≦0.0021, and *P ≦0.03 are considered significant. COX, cyclooxygenase; DMSO , dimethyl sulfoxide; NFA, nitro fatty acids
(1 picture or pasted object on this page, not shown here)

COX-2 = target: T1, COX-2 (Homo sapiens, UniProt P35354); assay: Recombinant COX-2 peroxidase activity assay; format: biochemical; parameters: purchased Cayman Chemicals #700100; details: 30 min preincubation
T1 sequence (P35354 18-604): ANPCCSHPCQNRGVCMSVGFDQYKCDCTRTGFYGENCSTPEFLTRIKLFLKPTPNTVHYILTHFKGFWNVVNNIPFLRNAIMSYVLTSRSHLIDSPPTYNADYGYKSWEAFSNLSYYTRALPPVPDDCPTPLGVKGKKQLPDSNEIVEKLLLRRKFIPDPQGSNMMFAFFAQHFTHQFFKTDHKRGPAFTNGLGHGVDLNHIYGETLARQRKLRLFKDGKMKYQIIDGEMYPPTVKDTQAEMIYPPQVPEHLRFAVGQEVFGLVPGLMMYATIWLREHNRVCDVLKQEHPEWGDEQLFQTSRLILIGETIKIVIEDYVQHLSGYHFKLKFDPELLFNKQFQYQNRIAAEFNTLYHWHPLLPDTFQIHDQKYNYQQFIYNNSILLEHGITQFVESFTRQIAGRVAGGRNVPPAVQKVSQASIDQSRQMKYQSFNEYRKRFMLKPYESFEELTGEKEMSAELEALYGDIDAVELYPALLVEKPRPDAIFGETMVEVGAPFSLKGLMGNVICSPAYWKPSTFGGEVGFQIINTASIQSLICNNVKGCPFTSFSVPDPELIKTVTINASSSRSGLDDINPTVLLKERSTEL
Procedure: The effects of NFA on COX-2 activity were analyzed using a recombinant COX-2 activity assay using a COX Fluorescent Inhibitor Screening Assay Kit (Cayman Chemicals, #700100). The assay was performed according to the manufacturer’s instructions in a black 96-well microplate. Human COX-2 was pre-incubated with NFA and control inhibitors for 30 min at RT following the addition of ADHP (10-acetyl-3,5-dihydroxyphenoxazine) and AA. The mixture was incubated again for 2 min at RT, and the fluorescence was measured at excitation/emission wavelengths of 535/587 nm.
FIGURE 4 Effects of NFA on COX-2 peroxidase activity. […] Peroxidase activity was measured by the appearance of TMPD. Data are presented as the percent of the control mean ± SD, n = 4. Statistical significance was calculated by one-way ANOVA with Bonferroni post-test. **p ≤ 0.0021, ***p ≤ 0.0002, ****p ≤ 0.0001 are considered significant.

sEH = target: T2, sEH (Homo sapiens, UniProt P34913); assay: Cell-based sEH activity assay in HepG2 cells; parameters: endogenous in cells; host or cells: HepG2; details: for inhibition of sEH activity in HepG2 cells: 10 µM, 24 h
T2 sequence (P34913 1-555): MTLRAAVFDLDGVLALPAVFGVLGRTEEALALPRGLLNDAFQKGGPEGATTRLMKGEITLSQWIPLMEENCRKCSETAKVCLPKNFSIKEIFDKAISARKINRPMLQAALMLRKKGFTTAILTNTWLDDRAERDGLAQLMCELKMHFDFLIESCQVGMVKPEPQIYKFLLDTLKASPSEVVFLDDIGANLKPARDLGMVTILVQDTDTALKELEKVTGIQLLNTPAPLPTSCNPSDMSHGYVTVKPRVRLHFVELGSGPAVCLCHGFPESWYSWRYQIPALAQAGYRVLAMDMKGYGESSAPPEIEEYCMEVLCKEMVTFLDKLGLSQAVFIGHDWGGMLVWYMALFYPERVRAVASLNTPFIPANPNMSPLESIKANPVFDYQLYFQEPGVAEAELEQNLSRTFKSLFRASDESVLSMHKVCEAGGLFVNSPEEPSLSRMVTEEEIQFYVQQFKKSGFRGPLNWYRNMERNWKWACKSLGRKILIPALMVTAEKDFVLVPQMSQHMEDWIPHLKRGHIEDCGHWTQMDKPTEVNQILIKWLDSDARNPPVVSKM
Procedure: sEH activity in the cells was analyzed using a Soluble Epoxide Hydrolase Cell-Based Assay Kit (Cayman Chemical, #600090). […] Following incubation, the cells were processed according to the manufacturer’s instructions. The assay uses an internal signal subtraction to minimize potential errors generated by sEH-independent product formation due esterase mediated hydrolysis. The fluorescence intensity of the samples was measured in a plate reader at excitation/emission wavelengths of 330/465 nm sEH activity was calculated by the 6-methoxy-2-naphthaldehyde standard curve.
FIGURE 3 Effects of NFA on sEH activity. […] Data are the mean ± SEM of n = 3–7. […] The cells were lysed, and hydrolase activity was measured by Epoxy Fluor 7 lysis. […] Statistical significance was calculated by one-way ANOVA with Bonferroni post-test and multiple comparisons against the DMSO control.

Row | inhibition at 10 µM (COX-2) [%] | inhibition of sEH activity in HepG2 cells (sEH) | Compound | COX-2 expression in IL-1β-stimulated A549 cells (COX-2 expression) | further results
1 |  |  | CCCCCCCCCCCCC=C(CCCC(=O)O)[N+](=O)[O-] [18.5.5, 5-nitro-octadec-5-enoic acid] | highest effects | 
2 |  |  | CCCCCCCCCCC=C(CCCCCC(=O)O)[N+](=O)[O-] [18.7.7, 7-nitro-octadec-7-enoic acid] | highest effects | COX-2 gene expression in non-stimulated A549 cells (COX-2 expression; without IL-1β): clearly increased COX-2 gene expression
3 |  |  | CCCCCCCCCC=C(CCCCCCC(=O)O)[N+](=O)[O-] [18.8.8, 8-nitro-octadec-8-enoic acid] | highest effects | 
4 |  | most efficient enzyme inhibition | CCCCCCCCC(=CCCCCCCCC(=O)O)[N+](=O)[O-] [18.9.10, 10-nitro-octadec-9-enoic acid] |  | 
5 | > 90 | most efficient enzyme inhibition | CCCCCCCC=C(CCCCCCCCC(=O)O)[N+](=O)[O-] [18.10.10, 10-nitro-octadec-10-enoic acid] |  | 
6 |  | most efficient enzyme inhibition | CCCCCCC=C(CCCCCCCCCC(=O)O)[N+](=O)[O-] [18.11.11, 11-nitro-octadec-11-enoic acid] |  | 
7 | > 85 |  | CCCCCCCCCCC=C(CCCCCCCC(=O)O)[N+](=O)[O-] [20.9.9, 9-nitro-eicos-9-enoic acid] |  | 

Row | Compound | inhibition at 10 µM (COX-2) [%] | inhibition of sEH activity in HepG2 cells (sEH) | COX-2 expression in IL-1β-stimulated A549 cells (COX-2 expression) | further results
8 | CCCCCCCCC=C(CCCCCCCC(=O)O)[N+](=O)[O-] [18.9.9, 9-nitro-octadec-9-enoic acid] | > 65 |  |  | 
9 | CCCCCCCC/C=C\CCCCCCCC(=O)O [OA, oleic acid, reference compound] |  | strong suppressive effect |  | inhibition of recombinant COX-2 peroxidase activity (COX-2; 10 µM): only weakly affected; inhibition at 10 µM (sEH; HepG2, 24 h): > 50%
